Test results published in the supplement of paper PMC10949913.

Experiments:
Conditions in all cases: 48 h
NCI-H295R [1] = assay: area under concentration-response curve (viability) (AUC (a.u.)); higher = less active
In short: (§1)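 Three adrenocortical carcinoma cell lines in 1,536-well plates received 23 nL of each library compound at 11 concentrations and were read with CellTiter-Glo after 48 h, with 15 minutes at room temperature before measuring luminescence. Vehicle and empty-well controls served for per-plate normalisation. AC50 and area under the curve were extracted from fitted concentration-response curves, discarding all curve classes other than inhibitory or non-responding.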

CU-ACC2 [2] = assay: as above
In short: as §1

CU-ACC1 [3] = assay: as above
In short: as §1

NCI-H295R [4] = assay: AC50 viability; higher = less potent
In short: as §1

CU-ACC2 [5] = assay: AC50 viability; higher = less potent
In short: as §1

CU-ACC1 [6] = assay: AC50 viability; higher = less potent
In short: as §1

Row | Compound | area under concentration-response curve (NCI-H295R [1]) | area under concentration-response curve (CU-ACC2 [2]) | area under concentration-response curve (CU-ACC1 [3]) | AC50 viability (NCI-H295R [4]) [µM] | AC50 viability (CU-ACC2 [5]) [µM] | AC50 viability (CU-ACC1 [6]) [µM]
1 | Cc1cc(O)c(-c2ccc([C@@H](C)CN(C)C)cc2)c2c1[nH]c(=O)c1sccc12 | 305 | 346 | 311 | 0.295 | 0.166 | 0.235
2 | O=C(c1ccc(F)c(F)c1Nc1ccc(I)cc1F)N1CC(O)([C@@H]2CCCCN2)C1 | 371 | 299 | 308 | 10.5 | 3.32 | 6.61
3 | CO[C@H]1CC[C@H](N2C(=O)CNc3ncc(-c4ccc(C(C)(C)O)nc4)nc32)CC1 | 502 | 570 | 462 | 18.6 | 18.6 | 16.6
4 | CCOC1=CC=CC=C1N\2C(=O)C3=C(C=CC=C3)\N=C2C(C)N4CCN(CC4)C(=O)COC5=CC=C(Cl)C=C5 (stereo unspecified) | 448 | 509 | 373 | 5.9 | 2.95 | 0.934
5 | Oc1c(Cl)cc(Cl)c2cccnc12 | 404 | 426 | 417 | 16.6 | 14.8 | 20.9
6 | COc1cc(N[S+](C)(=O)[O-])ccc1Nc1c2ccccc2nc2ccccc12 | 420 | 409 | 299 | 13.2 | 7.42 | 13.2
7 | O=C(/C=C\n1cnc(-c2cc(C(F)(F)F)cc(C(F)(F)F)c2)n1)NNc1cnccn1 | 469 | 489 | 319 | 13.2 | 11.8 | 20.9
8 | CC(C)c1cc(C(=O)N2Cc3ccc(CN4CCN(C)CC4)cc3C2)c(O)cc1O | 445 | 445 | 371 | 3.72 | 0.833 | 2.35
9 | ClC/1=C(NCCN2CCOCC2)/C(=O)C3=C(C=CC=N3)C1=O | 440 | 409 | 387 | 5.9 | 8.33 | 2.35
10 | Cc1cc(O[C@@H](CCC(F)(F)F)c2ccc(C(=O)NCCC(=O)O)cc2)cc(C)c1-c1ccc(C(C)(C)C)cc1 | 384 | 409 | 382 | 11.8 | 23.5 | 18.6
11 | Cc1nn(Cc2ccccc2Cl)c(C)c1CN(C)CC(O)COc1ccc(Cl)cc1 (stereo unspecified) | 482 | 507 | 418 | 8.33 | 7.42 | 8.33
12 | c1ccc(CNc2nc(NCc3ccccc3)c3ccccc3n2)cc1 | 386 | 467 | 366 | 7.42 | 9.34 | 7.42
13 | C=CC(=O)Nc1cccc(Nc2nc(Nc3ccc(N4CCN(C(C)=O)CC4)cc3OC)ncc2C(F)(F)F)c1 | 362 | 394 | 335 | 5.25 | 3.72 | 4.68
14 | CC[S+]([O-])(=O)NC1=CC(=C(OC2=C(F)C=C(F)C=C2)C=C1)\C3=C\N(C)C(=O)C4=C3C=C[NH]4 | 463 | 493 | 416 | 5.9 | 13.2 | 10.5
15 | COc1cc(-c2nn(C3CCC(N4CCN(C(C)=O)CC4)CC3)c3ncnc(N)c23)ccc1NC(=O)c1cc2ccccc2n1C (stereo unspecified) | 460 | 512 | 418 | 9.34 | 10.5 | 8.33
16 | Cc1ccc(-c2cc(C(F)(F)F)nn2-c2ccc([S+](N)(=O)[O-])cc2)cc1 | 271 | 261 | 268 | 9.34 | 10.5 | 10.5
17 | CC(O)(C#Cc1ccc2c(c1)N(c1nc(N)ncc1Cl)CC2)c1nccs1 (stereo unspecified) | 507 | 560 | 494 | 16.6 | 18.6 | 14.8
18 | COC1=CC2=C(C=C1CC3=C(F)C(=CC=C3)Cl)C(=O)\C(=C/N2[C@H](CO)C(C)C)C(O)=O | 509 | 528 | 405 | 20.9 | 14.8 | 16.6
19 | O=C(Nc1cc(C(F)(F)F)cc(C(F)(F)F)c1)c1cc(Cl)ccc1O | 463 | 493 | 429 | 2.95 | 1.86 | 2.63
20 | C=C1CC[C@@H]2[C@](C)(CO)[C@H](O)CC[C@@]2(C)[C@@H]1C/C=C1/C(=O)OC[C@H]1O | 372 | 388 | 334 | 16.6 | 5.9 | 11.8
21 | N[C@@H](Cc1ccc(N(CCCl)CCCl)cc1)C(=O)O | 385 | 303 | 267 | 9.34 | 9.34 | 10.5
22 | OCCNC1CCCc2c1[nH]c1ccc(-c3ccccc3)cc21 (stereo unspecified) | 456 | 526 | 462 | 10.5 | 23.5 | 20.9
23 | O=C(Nc1ccnc(NC(=O)C2CC2)c1)c1c(Cl)cccc1Cl | 479 | 463 | 390 | 18.6 | 4.17 | 9.34
24 | COC(=O)[C@]12CCC(C)(C)C[C@H]1[C@H]3C(=O)\C=C\4[C@@](C)(CC[C@H]5C(C)(C)C(=O)\C(=C/[C@]45C)C#N)[C@]3(C)CC2 | 412 | 375 | 402 | 13.2 | 16.6 | 20.9
25 | CC1(C)OC/2=C(\[C@H](NCC3=CC=CC=C3)[C@@H]1O)C(=O)C4=CC=CC=C4C2=O | 403 | 368 | 381 | 1.86 | 18.6 | 2.35
26 | Cc1c[nH]c2nc(Nc3ccc(N4CCN(C)CC4)c(F)c3)nc(-c3cccc(CC#N)c3)c12 | 472 | 422 | 457 | 5.25 | 4.17 | 6.61

Row | Compound | area under concentration-response curve (NCI-H295R [1]) | area under concentration-response curve (CU-ACC2 [2]) | area under concentration-response curve (CU-ACC1 [3]) | AC50 viability (NCI-H295R [4]) [µM] | AC50 viability (CU-ACC2 [5]) [µM] | AC50 viability (CU-ACC1 [6]) [µM]
27 | CCc1cc(C(N)=O)ccc1-n1nc(C(C)C)c2c(-n3cnc(-c4cnn(C)c4)c3)ccnc21 | 528 | 543 | 350 | 9.34 | 6.61 | 13.2
28 | COc1ccc(-c2nc(N3CCOCC3)c3sc(CN(C)c4ncc(C(=O)NO)cn4)cc3n2)cn1 | 285 | 281 | 211 | 0.059 | 0.186 | 0.0417
29 | CNCCCC12CCC(c3ccccc31)c1ccccc12 | 464 | 564 | 488 | 16.6 | 23.5 | 23.5
30 | CCN(CC)CCNC(=O)c1ccc2nc(-c3ccccc3)c(-c3ccc(CN4CCC(n5c(=O)[nH]c6ccccc65)CC4)cc3)nc2c1 | 440 | 479 | 444 | 9.34 | 7.42 | 9.34
31 | Cc1cc(Nc2ncc3c(n2)N(C)C(=O)N(c2cc(NC(=O)c4cccc(C(F)(F)F)c4)ccc2C)C3)n(C)n1 | 512 | 483 | 468 | 7.42 | 2.63 | 11.8
32 | COc1cc(C)c(Sc2cnc(NC(=O)c3ccc(CNC(C)C(C)C)cc3)s2)cc1C(=O)N1CCN(C(C)=O)CC1 (stereo unspecified) | 478 | 527 | 466 | 14.8 | 16.6 | 37.2
33 | C[S+](=O)([O-])N1CCN(Cc2cc3nc(-c4cccc5[nH]ncc45)nc(N4CCOCC4)c3s2)CC1 | 406 | 402 | 420 | 0.661 | 16.6 | 0.934
34 | COc1cc2c(Oc3ccc4[nH]c(C)cc4c3F)ncnc2cc1OCCCN1CCCC1 | 461 | 566 | 491 | 20.9 | 20.9 | 20.9
35 | CN(C)C/C=C/C(=O)Nc1ccc(C(=O)N2CCC[C@@H](Nc3ncc(Cl)c(-c4c[nH]c5ccccc45)n3)C2)cc1 | 489 | 358 | 399 | 14.8 | 2.63 | 5.25
36 | C[C@H](NC(=O)C(=O)Nc1ccccc1C(C)(C)C)C(=O)N[C@@H](CC(=O)O)C(=O)COc1c(F)c(F)cc(F)c1F | 203 | 235 | 328 | 1.05 | 0.661 | 1.66
37 | C=CC(=O)N1CC/C(=C\c2ccc(F)c([N+](=O)[O-])c2)C(=O)/C(=C/c2ccc(F)c([N+](=O)[O-])c2)C1 | 333 | 342 | 318 | 0.209 | 0.148 | 0.263
38 | C=CC(=O)Nc1cccc(Oc2nc(Nc3ccc(N4CCN(C)CC4)cc3OC)ncc2Cl)c1 | 502 | 526 | 442 | 9.34 | 7.42 | 8.33
39 | C[C@@H]1O[C@@H](O[C@H]2C[C@@H](O)[C@]3(CO)[C@H]4[C@H](O)C[C@]5(C)[C@H](CC[C@]5(O)[C@@H]4CC[C@]3(O)C2)C/6=C/C(=O)OC6)[C@H](O)[C@H](O)[C@H]1O | 264 | 335 | 215 | 0.0934 | 0.0468 | 0.0263
40 | CC1=NN=C(C[C@@H]2\C=C(C3=CC=C(Cl)C=C3)/C4=CC=CC=C4[N]5C(=NN=C25)C)O1 | 368 | 447 | 433 | 5.25 | 3.32 | 5.9
41 | CO[C@@H]1[C@@H](O)[C@H](O)[C@@H](n2c3c(Cl)cccc3c3c4c(c5c6cccc(Cl)c6[nH]c5c32)C(=O)NC4=O)O[C@H]1CO | 494 | 438 | 461 | 2.63 | 8.33 | 3.32
42 | C[C@@H]1CC[C@@]2(OC1)O[C@H]3C[C@H]4[C@@H]5C/C=C6/C[C@H](CC[C@]6(C)[C@H]5CC[C@]4(C)[C@H]3[C@@H]2C)O[C@@H]7O[C@H](CO)[C@@H](O[C@@H]8O[C@@H](C)[C@H](O)[C@@H](O)[C@H]8O)[C@H](O)[C@H]7O[C@@H]9O[C@@H](C)[C@H](O)[C@@H](O)[C@H]9O | 386 | 524 | 446 | 1.18 | 7.42 | 4.68
43 | CN1CCN(C(=O)c2ccc3cc(CCNc4ncnc5ccc(C#N)cc45)ccc3c2)CC1 | 436 | 499 | 397 | 2.95 | 16.6 | 4.17
44 | Cc1cc2cc(Oc3ccnc(Nc4cccc(C[S+](=O)([O-])NCCN(C)C)c4)n3)ccc2[nH]1 | 468 | 480 | 493 | 23.5 | 23.5 | 20.9
45 | CNCCCOc1cc(F)c(-c2c(Cl)nc3ncnn3c2N[C@@H](C)C(F)(F)F)c(F)c1 | 397 | 403 | 456 | 0.148 | 10.5 | 5.25
46 | C[C@@H](Oc1cc(-n2cnc3ccc(CN4CCN(C)CC4)cc32)sc1C(N)=O)c1ccccc1C(F)(F)F | 446 | 540 | 471 | 11.8 | 16.6 | 11.8
47 | C=CC(=O)Nc1ccc2ncnc(Nc3ccc(OCc4cccc(F)c4)c(Cl)c3)c2c1 | 510 | 534 | 334 | 10.5 | 10.5 | 20.9
48 | CCC(C1CCC(C)C(O1)C(C)C(O)C(C)C(=O)C(CC)C2OC\3(O[C@]4(CC[C@@](C)(O4)C5CC[C@@](O)(CC)C(C)O5)C(O)\C=C3)C(C)CC2C)C([O-])=O (stereo partly specified) | 456 | 473 | 291 | 8.33 | 5.9 | 5.25
49 | O=C(NO)c1cnc(NC2(c3ccccc3)CC2)nc1 | 465 | 499 | 423 | 5.25 | 16.6 | 11.8
50 | C=CC(=O)Nc1cc(Nc2nccc(-c3cn(C)c4ccccc34)n2)c(OC)cc1N(C)CCN(C)C | 408 | 432 | 393 | 9.34 | 10.5 | 9.34
51 | CCN1CCN(Cc2ccc(NC(=O)Nc3ccc(Oc4cc(NC)ncn4)cc3)cc2C(F)(F)F)CC1 | 494 | 526 | 436 | 11.8 | 10.5 | 9.34
